{"source": "patent US20260207626A1", "about": "“SYNTHETIC TRITERPENOIDS AND COMPOSITIONS THEREOF IN WEIGHT MANAGEMENT, SKELETAL MUSCLE FUNCTION, AND APPETITE SUPPRESSION” (The Board of Regents of the University of Texas System, priority 2022, published 2026)", "key": {"[1]": {"test_system": "NF-κB p65 (Ser536)", "test": "Western blot of LPS-induced NF-κB phosphorylation in L6-GLUT4myc myotubes", "format": "cell-based, rat", "conditions": "500 nM CDDO-EA 1 hr then 100 ng/ml LPS 1 hr", "source_text": "To examine the anti-inflammatory properties of CDDO-EA in skeletal muscle cells, CDDO-EA was examined for its effect on nuclear factor-kappa B (NF-κB) activity in L6-GLUT4myc muscle cells, in the context of LPS-mediated inflammatory responses in L6-GLUT4myc muscle cells. All experiments were independently repeated one to four times and done in duplicate or triplicate, and data were statistically analyzed by One-Way ANOVA or unpaired t-test, two tailed.\nCells were studied with vehicle alone [0.125% dimethyl sulfoxide (DMSO)] and LPS with and without CDDO-EA. […]\nWestern blotting and subcellular fractionation: L6-GLUT4myc myoblasts (4×10^4 cells/ml, 2 ml/well) were seeded onto 6-well dishes and differentiated with differentiation medium for 7 days. […] Protein concentrations were determined using the Pierce BCA Protein Assay (Thermo Fisher Scientific), and equal amounts of protein were separated by electrophoresis and subsequently transferred to nitrocellulose membranes. Membranes were analyzed using the following antibodies from Cell Signaling Technology: phosphorylated NF-κB (Ser536) (93 H1, cat #3033,1:1000), phosphorylated IKB-α (Ser32) (14D4, cat #2859,1:1000), IKB-α (44D4, cat #4812, 1:1000), phosphorylated p38 (Thr180/Tyr182) (cat #9211, 1:1000), p38 (cat #9212, 1:1000). […] Bands were quantitated using ImageQuant (GE Healthcare). […]"}, "[2]": {"test": "Food intake in mice fed HFD with or without CDDO-EA, LFD or HFD pair-fed", "format": "in vivo, C57BL/6J mice", "conditions": "HFD + CDDO-EA (0.04%) vs ad libitum HFD", "source_text": "C57BL/6J mice were fed a HFD with or without incorporation of CDDO-EA (diet containing 0.04% CDDO-EA) or LFD or HFD pair-fed for 6 weeks (n=5). Food intake data points in week 1 are not recorded when mice were in the Prometheion. Data are represented as mean±SEM (Two-way Repeated Measures ANOVA). *p<0.05; **p<0.01 vs. HFD pair-fed; ? p<0.01 vs. HFD+CDDO-EA; ##p<0.01 vs. LFD ad lib.\nC57BL/6J mice (6-8 weeks old, male, strain #000664, The Jackson Laboratory) were divided into four (4) groups (i)-(iv)): (i) ad libitum Low fat caloric content (LFD-10% of total calories from fat caloric content, #TD.08806, Envigo), (ii) ad libitum HFD (60% of total calories from fat caloric content, #TD.06414, Envigo), (iii) HFD+CDDO-EA (diet containing 0.04% CDDO-EA), and (iv) HFD pair-fed to food intake of mice fed HFD+CDDO-EA. The study was for 6 weeks (42 days) (performed at Vanderbilt Metabolic Mouse Phenotyping Center (VMMPC)). Mice were singly housed in a Promethion Metabolic Analyzer and were monitored continuously for 7 days to assess feeding and EE."}, "[3]": {"test_system": "NFκB", "test": "Western blot of palmitate (PA)-induced NFκB phosphorylation in L6-GLUT4myc myotubes", "format": "cell-based, rat", "conditions": "CDDO-EA 500 nM 1 h then PA 400 μM 6 h", "procedure": "L6-GLUT4myc myotubes were pretreated with CDDO-EA (500 nM, 1 h) and then treated with PA (400 μM, 6 h). NFκB phosphorylation and protein were measured by Western blotting. Data are represented as ±SEM. * P<0.05 vs. control; ^#P<0.05 vs. […]. (One-Way ANOVA)."}, "[4]": {"test_system": "N171-82Q mice", "conditions": "cited from earlier work"}}, "note": "“Also recorded” adds a separate entry of the source.", "data": [{"compound": "CCNC(=O)[C@]12CCC(C)(C)C[C@H]1C1C(=O)C=C3[C@@]4(C)C=C(C#N)C(=O)C(C)(C)[C@@H]4CC[C@@]3(C)[C@]1(C)CC2", "note": "(stereo partly drawn) [CDDO-EA, (4aS,6aR,6bS,8aR,12aS,14bS)-11-cyano-N-ethyl-2,2,6a,6b,9,9,12a-heptamethyl-10,14-dioxo-1,3,4,5,6,6a,6b, 7,8,8a,9,10,12a, 14,14a, 14b-hexadecahydropicene-4a (2H)-carboxamide]", "values": [{"measurement": "LPS-induced NF-κB phosphorylation", "setting": "[1]", "result": "decreased LPS-induced NF-κB and nuclear factor of kappa light polypeptide gene enhancer in B-cells inhibitor-alpha (IκB) phosphorylation; also recorded: inhibited LPS-induced NF-κB phosphorylation; also recorded: inhibits lipopolysaccharide (LPS)-induced NF-κB and Inhibitory kappa B alpha (IκB-α) phosphorylation"}, {"measurement": "food intake", "setting": "[2]", "result": "prevented an increase in food intake; also recorded: decreases food intake"}, {"measurement": "PA-induced NFκB phosphorylation", "setting": "[3]", "result": "inhibits PA-induced NF-κB activation; also recorded: inhibits PA-induced NFκB phosphorylation"}, {"measurement": "muscle strength and balance, survival", "setting": "[4]; N171-82Q mice", "result": "improved muscle strength and balance and increased survival"}, {"measurement": "accumulation in the skeletal muscle", "setting": "[4]; Stack et al. (2010)", "result": "accumulated in the skeletal muscle"}, {"measurement": "oxidative stress in skeletal muscle", "setting": "[4]; Stack et al. (2010)", "result": "oxidative stress in skeletal muscle was reduced"}]}]}
